In US20020090619A1, “Methods for identifying mitochondrial divalent cation transporters” (priority 2000, published 2002):

How the values were obtained:
yeast mitochondria [1] = assay: Membrane potential ΔΨ of isolated yeast mitochondria (safranin O); type: biochemical, Saccharomyces cerevisiae
Procedure: (§1) The yeast strain W303-1A (Saccharomyces cerevisiae) was grown aerobically at 30° C. in a medium containing 2% lactate, 1% yeast extract, 2% peptone, 0.05% dextrose, and 0.01% adenine at pH 5.0, and cells were harvested during the logarithmic phase (A600=1.8−2.2). Mitochondria were isolated from spheroplasts as previously described (Jung et al., 1997 J. Biol. Chem. 272:21104), except that 0.6 M sucrose was used in the homogenization medium instead of 0.6 M mannitol (Daum et al., 1982 J. Biol. Chem. 257:13028). The resulting preparations were maintained on ice and were suspended in 0.6 M mannitol 20 mM HEPES (K+) (pH 6.8), containing 0.75 mg/ml BSA and 0.1 mM EGTA. Protein concentration was determined by a reduced volume Biuret method in which 50 μl of the final preparation were solubilized by adding an equal volume of 10% deoxycholate (Na+), with 0.4 ml of Biuret reagent added to the resulting mixture. BSA was employed as the standard.
Unless otherwise noted, mitochondria were incubated at 1 mg protein/ml and at approximately 25° C. in a medium that contained 0.6 M mannitol, 10 mM Pi (K+), 10 mM Hepes (TEA+), pH 7.2, plus 1 mM ethanol as an oxidizable substrate. Compounds having a low solubility in water were added from stock solutions prepared in methanol or DMSO. Ca2+ transport and membrane potential were monitored using the indicating dyes antipyrylazo III (ΔA720-790) and safranin O (ΔA511-533), respectively (Akerman et al., 1976 FEBS Lett. 68:191; Scarpa et al., 1978 Biochem. 17:1378). An SLM Aminco DW-2C spectrophotometer operated in the dual wavelength mode was employed for these purposes. The same instrument, operated in split beam mode, was used to monitor mitochondrial swelling as a decrease in apparent absorbance of mitochondrial suspensions at 540 nm. Oxygen consumption data were obtained using a Clark-type electrode in parallel experiments. Atomic absorption spectroscopy was utilized to monitor the transport of other cations by yeast mitochondria. Briefly, samples were taken at appropriate times and the mitochondria were rapidly sedimented in a microcentrifuge. After carefully removing supernatants, the pellets were solubilized with 2 N percholoric acid (overnight) and centrifuged a second time. The resulting supernatants were diluted with an appropriate volume of distilled water and the concentration of the cation in question was subsequently determined.

[2] = test system: isolated yeast mitochondria; assay: Ca2+ transport in isolated yeast mitochondria expressing aequorin (luminescence); type: biochemical, Saccharomyces cerevisiae; conditions: FIG. 24
Procedure: For preculture, the transformant was inoculated into 50 ml of SC-U plus 2% glucose, and incubated in an air shaker at 180 rpm and 30° C. At 24 hr, the preculture was transferred to 500 ml of a medium containing 1% yeast extract, 2% peptone, 2% lactate, 1% galactose, 0.012% adenine, pH 5 w/NaOH, and growth was continued under conditions which were otherwise the same. Cells were harvested after an additional 24 hr, spheroplasts were prepared using zymolyase, and mitochondria were isolated by the method of Daum et al. (1982) as previously described (Jung et al., 1997). The final pellet was resuspended at ˜20 mg protein/ml in 0.6 M mannitol, 20 mM HEPES (K^+ salt, pH 6.8). Apoaequorin in the intact or disrupted mitochondria was reconstituted by incubation with coelenterazine as described above for cells.
For most experiments, the mitochondria were present at 0.4 mg protein/ml in a standard medium that contained 0.3 M KCl, 20 mM HEPES, (K^+ salt, pH 7.10), 10 mM KH2PO4, 2 mM EGTA, and 2 mM MgCl2. Other additions are described in greater detail below. Ca^2+ buffers were formed by adding various amounts of CaCl2 to this EGTA containing medium. The free Ca^2+ concentrations which resulted were calculated using a computer program (Brooks et al., 1992 Anal. Biochem. 201:119).
Luminescence measurements were carried out in 6×50 mm culture tubes, using a total volume of 0.3 ml, and were started by injection of 5-20 μl of mitochondria or cells. A SAI model 3000 integrating photometer was employed, with AJD sampling at 0.4 seconds intervals driven by Asyst software. Values were transformed into corresponding Ca^2+ concentrations by computer assisted calculations based upon published calibration methods (Allen et al., 1977 Science 195:996; Brini et al., 1995 J. Biol. Chem. 270:9896). For each value, the ratio of observed luminescence (L) to the potential luminescence remaining (Lmax) was calculated, and compared to a calibration curve which relates this ratio to the free Ca^2+ concentration. Thus, complete calibrated progress curves were generated. The total luminescence available initially (Ltotal) must be known and was determined in separate experiments, wherein a saturating Ca^2+ concentration (20 μM) is employed to discharge the aequorin completely. This value allows Lmax to be calculated at any time, as Ltotal minus the sum of luminescence that already occurred.
The calibration data were obtained at an ionic strength of 335 mM and in the presence of 1 mM Mg^2+, to mimic conditions in the mitochondrial matrix, because both factors influence the affinity of aequorin for Ca2+ (Cobbold et al., 1987 Biochem. J. 248:313). Luminescence values were corrected for low background values that are obtained when Ca^2+ is absent before conducting further calculations.

[3] = test system: Saccharomyces cerevisiae strain K473; assay: Growth inhibition by Ca2+ of pmc1 mutant yeast; type: cell-based; conditions: YPD medium, 30° C., 22 hr; read-out: 50% decrease in relative growth (IC50)
Procedure: This example describes growth inhibition by Ca^2+ of Saccharomyces cerevisiae strain K473, a pmc1 mutant lacking function in a vacuolar Ca2+ ATPase (Cunningham et al., 1996, Molec. Cell. Biology 16:2226-37; Cunningham et al., 1994 J. Cell Biol. 124:351-363). The strain was grown at 30° C. on standard YPD medium supplemented with 0, 50, 100, 200 or 300 mM CaCl2, as indicated. […]

[4] = test system: PMC1/PMR1 double ATPase mutant cells; conditions: Cunningham et al., 1994; cited from earlier work
[5] = ETH 129 mediated cation transport into Quin-2 loaded POPC vesicles; type: biochemical; conditions: 1.0 mM CaCl2, no Val, FIG. 5
Procedure: Unilamellar vesicles loaded with Quin-2 were prepared from 1-palmitoyl-2-oleoyl-sn-glycerophosphatidylcholine (POPC) by freeze-thaw extrusion (Erdahl et al., 1994 Biophys. J. 66:1678; Erdahl et al., 1995 Biophys. J. 69:2350). The formation medium contained 5 mM Quin-2 (K+), 10 mM Hepes (K+), pH 7.00, and 100 mM KCl. A high internal K+ concentration was sought to allow the generation of membrane potentials of varying magnitude (see below). The preparations obtained were applied to Sephadex™ G-50 mini-columns (Pharmacia, Piscataway N.J.) and eluted by low speed centrifugation (Fry et al., 1978 Anal. Biochem. 90:809), to replace the external medium with a 10 mM Hepes buffer (Na+), pH 7.00 (Erdahl et al., 1994 Biophys. J. 66:1678; Erdahl et al., 1995 Biophys. J. 69:2350). The nominal concentration of POPC in final preparations was determined as lipid phosphorus (Bartlett, 1959 J Biol. Chem. 234:466) and was near 80 mM. The average diameter of these vesicles was 71 nm as determined by freeze-fracture electron microscopy (Chapman et al., 1990 Chem. Phys. Lipids 55:73). They contained entrapped K+ at approximately 125 mM, as determined by atomic absorption spectroscopy, and Quin-2 at approximately 6 mM. The latter value was determined by titrating lysed vesicles with a standard solution of CaCl2 and was about one third of the expected value (Erdahl et al., 1995 Bipohys. J. 69:3250). The high solute level in the formation medium reduced the efficiency of Quin-2 entrapment by reducing the effectiveness of a freeze-thaw driven solute concentrating mechanism that normally elevates the internal concentrations of solutes, relative to the external medium (Chapman et al., 1990 Chem. Phys. Lipids 55:73; Chapman et al., 1990 Chem. Phys. Lipids 60:201).
POPC vesicles containing Quin-2 were utilized at a nominal phospholipid concentration of 1.0 mM, and at 25° C. The external medium contained polyvalent cation salts as described below, 100 mM NaCl, or mixtures of NaCl and KCl totaling […], and 10 mM Hepes, pH 7.00, unless otherwise noted. The medium pH was adjusted with NaOH that had been passed over Chelex 100 columns to remove contaminating cations (Erdahl et al., 1994 Biophys. J. 66:1678). In most cases an inside negative membrane electrical potential was present during the experiments. This was generated by the presence of 0.5 μM valinomycin (Val), which transports K+ out of the vesicles electrogenically (Erdahl et al., 1994 Biophys. J. 66:1678). The magnitude of the potential was controlled by varying the concentration ratio of Na+ to K+ in the external medium. A TPP+electrode was used to measure the potential (Broekemeier et al, 1998 Biochem. 37:13059), and thereby to verify that the calculated values were obtained. For these purposes the incubation medium contained 2.0 μM TPP.Cl and the entrapped volume was taken to be 2.02 μl/ml at a nominal POPC concentration of 1.0 mM (Chapman et al., 1990 Chem. Phys. Lipids 55:73).
Val was omitted when an imposed membrane potential was not desired, or in some cases 5 μM of the protonophore carbonyl cyanide m-chlorophenylhydrazone (CCP) was present instead of Val.
The transport of polyvalent cations was monitored by difference absorbance measurements which detected formation of the Quin-2:cation complex within the vesicle lumen. An Aminco DW2a spectrophotometer operated in the dual wavelength mode was employed. In addition, an Oriel No. 59800 band pass filter was used between the cuvette and the beam scrambler-photomultiplier assembly to prevent detection of the fluorescent light emitted by Quin-2. The sample wavelength for all cations was 264 nm. The reference wavelengths were at an isosbestic point in the Quin-2/Quin-2:cation complex difference spectrum of interest. These wavelengths varied slightly from cation to cation, as previously described (Erdahl et al., 1996 Biochem. 35:13817). […]

yeast mitochondria [6] = assay: ETH 129 mediated Ca2+ transport in isolated yeast mitochondria (antipyrylazo III); type: biochemical, Saccharomyces cerevisiae; conditions: BSA 0.5 mg/ml, 60 μM CaCl2, 3.6 μM ETH 129, increasing oleate, FIG. 14
Procedure: as §1, with “BSA was employed as the standard.” left out
Unless otherwise noted, mitochondria were incubated at 1 mg protein/ml and at approximately 25° C. in a medium that contained 0.6 M mannitol, 10 mM Pi (K+), 10 mM Hepes (TEA+), pH 7.2, plus 1 mM ethanol as an oxidizable substrate. […] Ca2+ transport and membrane potential were monitored using the indicating dyes antipyrylazo III (ΔA720-790) and safranin O (ΔA511-533), respectively (Akerman et al., 1976 FEBS Lett. 68:191; Scarpa et al., 1978 Biochem. 17:1378). […]

Compound | effect on ΔΨ, agent alone (yeast mitochondria [1]; BSA absent, FIG. 11B) | external Ca2+ giving half-maximal rate of change in matrix Ca^2+ ([2]; nonrespiring mitochondria) | external Ca2+ giving half-maximal rate of change in matrix Ca^2+ ([2]; respiring mitochondria (0.5 mM ethanol)) | IC50 [3] | cytostatic Ca^2+ concentrations [4] | activation of ETH 129 mediated Ca2+ transport [5] | suppression of ΔΨ during titration with exogenous oleate (yeast mitochondria [1]; ETH 129, free Ca2+ and BSA available, no EGTA, FIG. 16) | oleate level above which ΔΨ is depressed (yeast mitochondria [1]; excess EGTA (2 mM), ETH 129, CaCl2, BSA present, FIG. 16) | effect of exogenous oleate on ETH 129 mediated Ca2+ accumulation (yeast mitochondria [6])
[Ca+2] [Ca2+] | little effect | 0.82 µM | 1.0 µM | 92 mM | ≤ 300 µM |  |  |  | 
CCCCCCCC/C=C\CCCCCCCC(=O)O [oleate, oleic acid] |  |  |  |  |  | inability of oleate (a lipophilic fatty acid anion) to substitute for CCP | began immediately | exceeded 15 nmol/mg protein | first inhibited further accumulation and then caused a reversal of the transport that had already occurred
